The text below walks through data of ChEMBL document CHEMBL5370654, “Discovery of 3-Phenyl Indazole-Based Novel Chemokine-like Receptor 1 Antagonists for the Treatment of Psoriasis” (J Med Chem, 2023).

Activity calls are given as the source filed them. The rule behind the calls is not given here.

Data set [1] has as its target T1, Chemerin-like receptor 1 (Homo sapiens, UniProt Q99788).
T1 sequence (Q99788 whole entry): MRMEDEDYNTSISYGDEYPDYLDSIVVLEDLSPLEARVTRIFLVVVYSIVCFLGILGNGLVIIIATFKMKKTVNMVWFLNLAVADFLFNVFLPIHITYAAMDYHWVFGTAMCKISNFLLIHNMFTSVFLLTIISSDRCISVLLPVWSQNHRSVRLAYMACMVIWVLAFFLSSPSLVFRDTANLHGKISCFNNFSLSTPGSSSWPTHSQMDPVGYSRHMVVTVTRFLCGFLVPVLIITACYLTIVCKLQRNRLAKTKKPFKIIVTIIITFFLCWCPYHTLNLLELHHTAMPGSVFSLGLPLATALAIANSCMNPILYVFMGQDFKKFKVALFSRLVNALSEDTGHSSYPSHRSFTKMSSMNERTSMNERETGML
The data set is described as follows: Antagonist activity at human CMKLR1 expressed in CHO-K1 cells co-expressing Galpha-16 assessed as change in intracellular calcium concentration incubated for 30 mins in presence of chemerin-9 by FLIPR calcium 5 assay. It counts as functional, cell-based.

The subject of data set [2] is Mus musculus. The data set is described as follows: Antiinflammatory activity against imiquimod-induced BALB/c mouse psoriasis model assessed as reduction in epidermal proliferation in mouse back skin at 0.4 mg/kg, po qd administered for 7 days by hematoxylin and eosin staining based analysis. It counts as functional, organism-based. To be noted: time 7.0 day.
Data set [3] in a line: Toxicity in imiquimod-induced BALB/c mouse psoriasis model assessed as change in body weight at 0.4 mg/kg, po qd administered for 7 days. To be noted: in vivo, 168 h, time 7 day. It counts as organism-based.
The target in data set [4] is T1, Chemerin-like receptor 1. The data set is described as follows: Antagonist activity at human CMKLR1.
The nature of data set [5]: Cmax in C57BL6 mouse at 10 mg/kg, po measured upto 24 hrs by LC-MS/MS analysis. It counts as ADME, organism-based. On the set-up: dose 10 mg/kg, time < 24 hrs, route po. To be noted: in vivo.
Data set [6] can be described thus: Tmax in C57BL6 mouse at 10 mg/kg, po measured upto 24 hrs by LC-MS/MS analysis. It counts as ADME, organism-based. To be noted: in vivo.
The nature of data set [7]: AUClast in C57BL6 mouse at 10 mg/kg, po measured upto 24 hrs by LC-MS/MS analysis. It is filed as ADME, organism-based. More on the design: dose 10 mg/kg, time < 24 hrs, route po. To be noted: in vivo.
Data set [8] is described as follows: Cmax in C57BL6 mouse at 30 mg/kg, po measured upto 24 hrs by LC-MS/MS analysis. It counts as ADME, organism-based. On the set-up: dose 30 mg/kg, time < 24 hrs, route po. To be noted: in vivo.
The nature of data set [9]: Tmax in C57BL6 mouse at 30 mg/kg, po measured upto 24 hrs by LC-MS/MS analysis. It counts as ADME, organism-based. To be noted: in vivo.
Data set [10] in a line: AUClast in C57BL6 mouse at 30 mg/kg, po measured upto 24 hrs by LC-MS/MS analysis. It is filed as ADME, organism-based. More on the design: dose 30 mg/kg, time < 24 hrs, route po. To be noted: in vivo.
The nature of data set [11]: Toxicity in imiquimod-induced BALB/c mouse psoriasis model assessed as change in body weight at 30 mg/kg, po qd administered for 7 days. To be noted: in vivo, 168 h, time 7 day. It is filed as organism-based.

As for `Cc1ccc(-c2nn(C3CCCC3)c3cc(COc4ccc(C(C)CC(=O)O)cc4)ccc23)cc1` (racemic), in [1], the IC50 was 2340 nM.

With `C[C@@H](CC(=O)O)c1ccc(OCc2ccc3c(-c4ccc(O)c(O)c4)nn(C4CCCC4)c3c2)cc1`, the IC50 in data set [1] is 2090 nM.

On to `CN(Cc1cnc2nc(N)nc(N)c2n1)c1ccc(C(=O)N[C@@H](CCC(=O)O)C(=O)O)cc1` [METHOTREXATE], for which the result in data set [2] was Active. Further, the Activity entry in data set [3] was “Non-Toxic”.

For the compound `C[C@@H](CC(=O)O)c1ccc(OCc2cc(F)c3c(-c4cc(Cl)c(O)c(Cl)c4)nn(C4CCCC4)c3c2)cc1`, the IC50 in data set [1] was 19.1 nM.

As for `CC[C@@H](O)/C=C/C=C\C[C@@H](O)/C=C/C=C/C=C\[C@@H](O)CCCC(=O)O` [RESOLVIN E1], the EC50 in data set [4] amounted to 1 nM.

Take `CC(CC(=O)O)c1ccc(OCc2ccc3c(-c4cc(Cl)c(O)c(Cl)c4)nn(C4CCCC4)c3c2)cc1` (racemic): the IC50 in data set [1] is 309 nM. The compound also gave a Cmax in data set [5] of 225 ng/mL. The Tmax in data set [6] is 30 min. Further, the area under the curve AUC(0-t) at 24 h in [7] is 823 ng·h/mL.

As for `C[C@@H](CC(=O)O)c1ccc(OCc2ccc3c(-c4cc(Cl)c(O)c(Cl)c4)nn(C4CCCC4)c3c2)cc1`, in data set [1], the concentration for half-maximal inhibition (IC50) was 141 nM.

`C[C@@H](CC(=O)O)c1ccc(OCc2ccc3c(-c4ccc(O)cc4Cl)nn(C4CCCC4)c3c2)cc1`: the IC50 in [1] is 676 nM.

With `C[C@@H](CC(=O)O)c1ccc(OCc2ccc3c(-c4cc(F)c(CO)c(F)c4)nn(C4CCCC4)c3c2)cc1`, the IC50 in data set [1] was 53.7 nM.

With `C[C@@H](CC(=O)O)c1ccc(OCc2ccc3c(-c4cc(Cl)c(O)cc4Cl)nn(C4CCCC4)c3c2)cc1`, the IC50 in [1] is 525 nM.

As to `C[C@@H](CC(=O)O)c1ccc(OCc2ccc3c(-c4cc(F)c(O)cc4F)nn(C4CCCC4)c3c2)cc1`, the IC50 in [1] was 513 nM.

Regarding `COc1ccc(-c2nn(C3CCCC3)c3cc(COc4ccc(C(C)CC(=O)O)cc4)ccc23)cc1` (racemic), the concentration for half-maximal inhibition (IC50) in data set [1] is 1100 nM.

On to `C[C@@H](CC(=O)O)c1ccc(OCc2ccc3c(-c4ccc(O)c([N+](=O)[O-])c4)nn(C4CCCC4)c3c2)cc1`, for which the 50% inhibitory concentration (IC50) in [1] is 1700 nM.

Consider `CC(CC(=O)O)c1ccc(OCc2ccc3c(-c4ccc(Cl)cc4)nn(C4CCCC4)c3c2)cc1` (racemic), for which the IC50 in data set [1] was 2290 nM.

`CC(C)n1nc(-c2ccccc2)c2ccc(COc3ccc([C@@H](C)CC(=O)O)cc3)cc21`: in [4], the IC50 is 5.75 µM.

Consider `C[C@@H](CC(=O)O)c1ccc(OCc2cc(F)c3c(-c4cc(Cl)c(CO)c(Cl)c4)nn(C4CCCC4)c3c2)cc1`, for which the highest level in data set [8] (Cmax) was 7900 ng/mL. Also, the Tmax in [9] worked out at 2 h. The AUC(0-t) at 24 h in data set [10] came to 64100 ng·h/mL. Also, the Activity entry in data set [11] is “Non-Toxic”.

`CC(CC(=O)O)c1ccc(OCc2ccc3c(-c4cc(Cl)c(CO)c(Cl)c4)nn(C4CCCC4)c3c2)cc1` (racemic) returned a Cmax in data set [5] of 2600 ng/mL. In data set [6], the time of peak concentration (Tmax) was 30 min. The AUC(0-t) at 24 h in data set [7] was found to be 11700 ng·h/mL.

Take `CC(CC(=O)O)c1ccc(OCc2ccc3c(-c4cccc(O)c4)nn(C4CCCC4)c3c2)cc1` (racemic): the IC50 in data set [1] is 2570 nM.

As usually defined, the IC50 is the midpoint of a concentration-inhibition curve. As a reminder, the EC50 is the concentration at which the effect is half-maximal. What is called Cmax is the maximum level reached in the sampled fluid or tissue. As a reminder, the Tmax is the time from dosing to the highest level. Broadly, the AUC(0-t) is exposure summed from dosing to a finite time, without extrapolation to infinity.
